In the supplement of paper PMC10307832:

Experiments:
Experiment in all cases: relative viability (nuclei count vs DMSO), 5 days (fraction); higher = more cells survive
Ruxolitinib + Olaparib = compound: N#CC[C@H](C1CCCC1)n1cc(-c2ncnc3[nH]ccc23)cn1 [Ruxolitinib] + O=C(c1cc(Cc2n[nH]c(=O)c3ccccc23)ccc1F)N1CCN(C(=O)C2CC2)CC1 [Olaparib] (partner 8 µM)
Procedure, shortened: (§1)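 One day after seeding in 1536-well plates, lung cancer cell lines were dosed by pin tool. Dosing was either single-drug or a fixed anchor-drug dose plus five library-drug doses (not always all listed) in √10 steps. After 5 days, nuclei were stained in one fix-and-stain step and counted on 4× images, and relative viability is the nuclei count of treated wells over that of vehicle wells, given as the median of duplicate plates.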

VE-821 + Dasatinib = compound: CS(=O)(=O)c1ccc(-c2cnc(N)c(C(=O)Nc3ccccc3)n2)cc1 [VE-821] + Cc1nc(Nc2ncc(C(=O)Nc3c(C)cccc3Cl)s2)cc(N2CCN(CCO)CC2)n1 [Dasatinib] (partner 0.075 µM)
Procedure, shortened: as §1

VE-821 + AZD7762 = compound: CS(=O)(=O)c1ccc(-c2cnc(N)c(C(=O)Nc3ccccc3)n2)cc1 [VE-821] + NC(=O)Nc1cc(-c2cccc(F)c2)sc1C(=O)N[C@H]1CCCNC1 [AZD7762] (partner 0.2 µM)
Procedure, shortened: as §1

Vismodegib + AZD7762 = compound: CS(=O)(=O)c1ccc(C(=O)Nc2ccc(Cl)c(-c3ccccn3)c2)c(Cl)c1 [Vismodegib] + NC(=O)Nc1cc(-c2cccc(F)c2)sc1C(=O)N[C@H]1CCCNC1 [AZD7762] (partner 0.2 µM)
Procedure, shortened: as §1

| Cell Line | relative viability (Ruxolitinib + Olaparib; first compound 0.08 µM) | relative viability (Ruxolitinib + Olaparib; first compound 0.253 µM) | relative viability (Ruxolitinib + Olaparib; first compound 0.8 µM) | relative viability (Ruxolitinib + Olaparib; first compound 2.53 µM) | relative viability (Ruxolitinib + Olaparib; first compound 8 µM) | relative viability (VE-821 + Dasatinib; first compound 0.08 µM) | relative viability (VE-821 + Dasatinib; first compound 0.253 µM) | relative viability (VE-821 + Dasatinib; first compound 0.8 µM) | relative viability (VE-821 + Dasatinib; first compound 2.53 µM) | relative viability (VE-821 + Dasatinib; first compound 8 µM) | relative viability (VE-821 + AZD7762; first compound 0.08 µM) | relative viability (VE-821 + AZD7762; first compound 0.253 µM) | relative viability (VE-821 + AZD7762; first compound 0.8 µM) | relative viability (VE-821 + AZD7762; first compound 2.53 µM) | relative viability (VE-821 + AZD7762; first compound 8 µM) | relative viability (Vismodegib + AZD7762; first compound 0.08 µM) | relative viability (Vismodegib + AZD7762; first compound 0.253 µM) | relative viability (Vismodegib + AZD7762; first compound 0.8 µM) | relative viability (Vismodegib + AZD7762; first compound 2.53 µM) | relative viability (Vismodegib + AZD7762; first compound 8 µM) |
| --- | --- | --- | --- | --- | --- | --- | --- | --- | --- | --- | --- | --- | --- | --- | --- | --- | --- | --- | --- | --- |
| SK-MES-1 | 0.766 | 0.639 | 0.713 | 0.563 | 0.597 | 0.389 | 0.379 | 0.274 | 0.332 | 0.199 | – | – | – | – | – | – | – | – | – | – |
| HCC-827 | – | 0.469 | 0.469 | 0.49 | 0.594 | 0.322 | 0.294 | 0.289 | 0.421 | 0.262 | 0.178 | 0.194 | 0.169 | 0.18 | 0.189 | 0.278 | 0.183 | 0.258 | 0.168 | 0.169 |
| NCI-H596 | 0.761 | 0.71 | 0.844 | 0.696 | 0.751 | 0.545 | 0.653 | 0.643 | 0.679 | 0.615 | 1.03 | 0.918 | 0.915 | 0.961 | 0.787 | 1.07 | 1.04 | 0.954 | 1.11 | 1.08 |
| COR-L23 | 0.369 | 0.371 | 0.376 | 0.329 | 0.272 | 0.678 | 0.48 | 0.545 | 0.536 | 0.395 | – | – | – | – | – | – | – | – | – | – |
| 201T | 0.941 | 0.964 | 0.972 | 1.01 | 0.894 | 0.588 | 0.529 | 0.476 | 0.434 | 0.44 | 0.67 | 0.578 | 0.585 | 0.648 | 0.46 | 0.624 | 0.623 | 0.696 | 0.622 | 0.581 |
| NCI-H322M | 0.752 | 0.852 | 0.79 | 0.809 | 1.05 | 0.255 | 0.264 | 0.248 | 0.301 | 0.268 | 0.565 | 0.488 | 0.361 | 0.382 | 0.366 | 0.598 | 0.503 | 0.603 | 0.507 | 0.548 |
| LU99A | 0.272 | 0.277 | 0.268 | 0.237 | 0.224 | 0.552 | 0.562 | 0.551 | 0.571 | 0.303 | 0.372 | 0.307 | 0.208 | 0.195 | 0.102 | 0.333 | 0.324 | 0.537 | 0.353 | 0.325 |
| NCI-H2405 | 0.931 | 0.838 | 0.882 | 0.633 | 0.573 | 0.178 | 0.211 | 0.202 | 0.203 | 0.205 | 0.791 | 0.677 | 0.598 | 0.553 | 0.25 | 0.739 | 0.711 | 0.637 | 0.706 | 0.73 |
| LK-2 | 0.553 | 0.701 | 0.893 | 0.724 | 0.52 | 0.269 | 0.26 | 0.273 | 0.352 | 0.38 | 0.477 | 0.392 | 0.282 | 0.415 | 0.252 | 0.401 | 0.479 | 0.419 | 0.387 | 0.447 |
| HCC-366 | 0.424 | 0.417 | 0.39 | 0.287 | 0.197 | 0.67 | 0.633 | 0.516 | 0.255 | 0.0491 | 0.235 | 0.148 | 0.0505 | 0.056 | 0.0429 | 0.269 | 0.217 | 0.292 | 0.258 | 0.373 |
| NCI-H441 | 0.508 | 0.54 | 0.502 | 0.472 | 0.484 | 0.641 | 0.558 | 0.706 | 0.687 | 0.539 | 1.28 | 0.966 | 0.93 | 0.69 | 0.478 | 1.1 | – | 1.05 | 1.01 | 1.03 |
| COR-L 105 | – | 0.614 | 0.652 | 0.614 | 0.606 | 0.327 | 0.313 | 0.276 | 0.344 | 0.255 | – | – | – | – | – | – | – | – | – | – |
| A-427 | 0.749 | 0.732 | 0.739 | 0.67 | 0.632 | 0.793 | 0.647 | 0.657 | 0.652 | 0.423 | 0.767 | 0.599 | 0.417 | 0.362 | 0.327 | 0.739 | 0.706 | 0.805 | 0.619 | 0.801 |
| HCC-44 | 0.958 | 0.889 | 0.978 | 0.922 | 0.995 | – | – | – | – | – | 0.94 | 0.944 | 1.07 | 0.964 | 0.914 | 1.06 | 1.04 | 0.932 | 1.01 | 1.04 |
| NCI-H2170 | 0.584 | 0.686 | 0.592 | 0.579 | 0.5 | 0.62 | 0.465 | 0.463 | 0.421 | 0.381 | 0.842 | 0.766 | 0.771 | 0.394 | 0.199 | 0.913 | 0.838 | 0.974 | 0.866 | 0.909 |
| NCI-H1623 | – | – | – | – | – | 0.565 | 0.53 | 0.518 | 0.525 | 0.606 | – | – | – | – | – | – | – | – | – | – |
| NCI-H2228 | 0.58 | 0.847 | 0.576 | 0.614 | 0.592 | 0.602 | 0.457 | 0.621 | 0.528 | 0.31 | – | – | – | – | – | – | – | – | – | – |
| ABC-1 | – | 0.886 | 0.892 | 0.505 | 1.02 | 0.554 | 0.519 | 0.614 | 0.517 | 0.439 | 0.86 | 0.767 | 0.94 | 0.714 | 0.628 | 0.97 | 0.851 | 0.823 | 0.803 | 0.839 |
| LOU-NH91 | 0.757 | 0.895 | 0.97 | 0.853 | 0.813 | 0.571 | 0.489 | 0.567 | 0.55 | 0.584 | 0.796 | 0.711 | 0.823 | 0.717 | 0.681 | 0.802 | 0.752 | 0.727 | 0.771 | 0.789 |
